{"source": "paper PMC10368877", "about": "“Acid-sensing ion channel blocker diminazene facilitates proton-induced excitation of afferent nerves in a similar manner that Na^+/H^+ exchanger blockers do” (Frontiers in Cellular Neuroscience, 2023)", "tested_on": "T1, acid-sensing ion channels (native ASICs of mouse DRG neurons; subunit not identified)", "T1 construct": "native channels in primary cultured mouse DRG neurons", "test": "whole-cell patch clamp, ASIC currents evoked by pH drop […] to […] at -60 mV", "type": "cell-based", "data": [{"smiles": "N=C(N)c1ccc(/N=N/Nc2ccc(C(=N)N)cc2)cc1", "note": "[diminazene]", "values": [{"measurement": "IC50", "value": "16.9 ± 4.4", "unit": "µM"}]}]}
